Reference: patent US11878965B2, “Inhibitors of peptidylarginine deiminases” (Gilead Sciences, Inc., priority 2020, dated 2024)

Molecular target: human PAD4 (Homo sapiens (Human), UniProt Q9UM07)
Assay: In Vitro PAD4 BAEE Biochemical Assay
Details: recombinant PAD4 5 nM, 2 mM calcium chloride, 3 mM BAEE substrate; geometric mean of multiple experiments
Method in brief: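 Recombinant human PAD4 (His-SUMO tag removed, E. coli-expressed), 5 nM, preincubated with compound and 2 mM CaCl2 30 min at 25 °C in MOPS pH 7.6 with DTT; 3 mM BAEE added for 2 h at 25 °C, EDTA stop. Released ammonia detected by o-phthalaldehyde/DTT fluorescence (ex 405, em 535 nm).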

human PAD4, sequence (Q9UM07 2-663): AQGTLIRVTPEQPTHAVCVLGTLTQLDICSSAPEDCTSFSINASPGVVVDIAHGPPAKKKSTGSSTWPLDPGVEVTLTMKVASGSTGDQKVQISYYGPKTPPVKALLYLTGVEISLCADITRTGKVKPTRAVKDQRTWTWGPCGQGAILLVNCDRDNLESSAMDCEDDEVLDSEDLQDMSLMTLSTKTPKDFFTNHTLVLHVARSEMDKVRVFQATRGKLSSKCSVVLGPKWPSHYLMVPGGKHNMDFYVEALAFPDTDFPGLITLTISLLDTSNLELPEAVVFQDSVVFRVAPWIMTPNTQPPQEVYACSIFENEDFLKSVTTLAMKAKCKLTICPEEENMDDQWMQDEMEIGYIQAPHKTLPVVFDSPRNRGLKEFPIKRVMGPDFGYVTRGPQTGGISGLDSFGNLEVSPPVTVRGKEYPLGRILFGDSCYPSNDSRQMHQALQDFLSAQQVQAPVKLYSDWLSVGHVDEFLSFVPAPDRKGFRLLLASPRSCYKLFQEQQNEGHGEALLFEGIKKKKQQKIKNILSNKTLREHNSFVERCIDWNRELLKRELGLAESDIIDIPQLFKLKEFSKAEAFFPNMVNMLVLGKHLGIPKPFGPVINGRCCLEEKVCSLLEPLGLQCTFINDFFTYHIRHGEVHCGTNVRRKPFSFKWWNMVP

| IC50 [nM] | Compound |
| --- | --- |
| 65.5 | COc1cc(C(=O)N2C[C@H](N)[C@@H]3CC[C@H]2C3)cc2nc(-c3cc4ccc([C@@H](C)NC(=O)c5c(F)cccc5F)nc4n3CC3CC3)n(C)c12 [Example 295, N-((R)-1-(2-(5-((1S,4R,5R)-4-amino-2-azabicyclo[3.2.1]octane-2-carbonyl)-7-methoxy-1-methyl-1H-benzo[d]imidazol-2-yl)-1-(cyclopropylmethyl)-1H-pyrrolo[2,3-b]pyridin-6-yl)ethyl)-2,6-difluorobenzamide] |
| 74.1 | COc1cc(C(=O)N2C[C@H](N)[C@@H]3CC[C@H]2C3)cc2nc(-c3cc4ccc([C@@H](C)NC(=O)c5ccnc(C(F)F)c5)nc4n3CC3CC3)n(C)c12 [Example 296, N-((R)-1-(2-(5-((1S,4R,5R)-4-amino-2-azabicyclo[3.2.1]octane-2-carbonyl)-7-methoxy-1-methyl-1H-benzo[d]imidazol-2-yl)-1-(cyclopropylmethyl)-1H-pyrrolo[2,3-b]pyridin-6-yl)ethyl)-2-(difluoromethyl)isonicotinamide] |
| 65.9 | COc1cc(C(=O)N2C[C@H](N)[C@@H]3CC[C@H]2C3)cc2nc(-c3cc4ccc([C@@H](C)NC(=O)c5ccc(C(F)F)nc5)nc4n3CC3CC3)n(C)c12 [Example 297, N-((R)-1-(2-(5-((1S,4R,5R)-4-amino-2-azabicyclo[3.2.1]octane-2-carbonyl)-7-methoxy-1-methyl-1H-benzo[d]imidazol-2-yl)-1-(cyclopropylmethyl)-1H-pyrrolo[2,3-b]pyridin-6-yl)ethyl)-6-(difluoromethyl)nicotinamide] |
| 86.4 | COc1cc(C(=O)N2C[C@H](N)[C@@H]3CC[C@H]2C3)cc2nc(-c3cc4ccc([C@@H](C)NC(=O)c5ccnc(Cl)c5)nc4n3CC3CC3)n(C)c12 [Example 298, N-((R)-1-(2-(5-((1S,4R,5R)-4-amino-2-azabicyclo[3.2.1]octane-2-carbonyl)-7-methoxy-1-methyl-1H-benzo[d]imidazol-2-yl)-1-(cyclopropylmethyl)-1H-pyrrolo[2,3-b]pyridin-6-yl)ethyl)-2-chloroisonicotinamide] |
| 74.3 | COc1cc(C(=O)N2C[C@H](N)[C@@H]3CC[C@H]2C3)cc2nc(-c3cc4ccc([C@@H](C)NC(=O)C56C7C8C9C7C5C9C86)nc4n3CC3CC3)n(C)c12 (stereo partly drawn) [Example 299, N-((R)-1-(2-(5-((1S,4R,5R)-4-amino-2-azabicyclo[3.2.1]octane-2-carbonyl)-7-methoxy-1-methyl-1H-benzo[d]imidazol-2-yl)-1-(cyclopropylmethyl)-1H-pyrrolo[2,3-b]pyridin-6-yl)ethyl)cubane-1-carboxamide] |
| 72 | COc1cc(C(=O)N2C[C@H](N)[C@@H]3CC[C@H]2C3)cc2nc(-c3cc4ccc([C@@H](C)NC(=O)c5ccc(C(C)(C)O)nc5)nc4n3CC3CC3)n(C)c12 [Example 300, N-((R)-1-(2-(5-((1S,4R,5R)-4-amino-2-azabicyclo[3.2.1]octane-2-carbonyl)-7-methoxy-1-methyl-1H-benzo[d]imidazol-2-yl)-1-(cyclopropylmethyl)-1H-pyrrolo[2,3-b]pyridin-6-yl)ethyl)-6-(2-hydroxypropan-2-yl)nicotinamide] |
| 65.8 | [2H]C1([2H])[C@H](N)[C@@H]2CC[C@@H](C2)N1C(=O)c1cc(OC)c2c(c1)nc(-c1cc3ccc(C(C)NC(=O)C45CC(F)(C4)C5)nc3n1CC1CC1)n2C (stereo partly drawn) [Example 301, N-((R)-1-(2-(5-((1S,4R,5R)-4-amino-2-azabicyclo[3.2.1]octane-2-carbonyl-3,3-d2)-7-methoxy-1-methyl-1H-benzo[d]imidazol-2-yl)-1-(cyclopropylmethyl)-1H-pyrrolo[2,3-b]pyridin-6-yl)ethyl)-3-fluorobicyclo[1.1.1]pentane-1-carboxamide] |
